This assay has as its target PD-1/PD-L1 (Homo sapiens (Human), UniProt Q9NZQ7). The assay can be described thus: PD-1/PD-L1 biochemical protein-protein interaction assay (ALPHA). As to conditions: 0.3 nM His tagged PD-L1, 2.5 nM biotinylated Fc-PD-1, 60 minutes at 25° C., read-out: IC50 PD-L1-PD1. On the procedure:
Binding of the protein pairs is measured using a bead based Amplified Luminescent Proximity Homogeneous Assay (ALPHA) platform. Binding of each protein pair results in proximity of the donor and acceptor beads which leads to an increase in ALPHA signal. […] Assays are performed in 25 mM Hepes (pH 7.4), 150 mM NaCl, 3.4 mM EDTA, 0.005% Tween 20, and 0.01% BSA. […] After an assay reaction time of 60 minutes at 25° C., binding was measured with addition of 20 μg/mL ALPHA assay acceptor beads (anti-His coated) and 20 µg/mL ALPHA assay donor beads (streptavidin coated). IC50 values were calculated from the fit of the dose-response curves to a four-parameter equation.

By IC50 is commonly meant the concentration that inhibits the measured activity by half.

PD-1/PD-L1, sequence (Q9NZQ7 19-238): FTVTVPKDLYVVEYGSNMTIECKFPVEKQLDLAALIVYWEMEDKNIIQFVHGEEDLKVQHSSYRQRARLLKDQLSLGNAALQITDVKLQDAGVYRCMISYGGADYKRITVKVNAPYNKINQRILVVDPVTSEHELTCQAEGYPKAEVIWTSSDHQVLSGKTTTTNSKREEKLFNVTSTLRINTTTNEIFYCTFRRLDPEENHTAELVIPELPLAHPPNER

For `COc1nc(-c2cccc(-c3cccc(-c4cnc(CN5CC6CC6(CO)C5)c(OC)n4)c3Cl)c2Cl)cnc1CNC[C@@H]1CCC(=O)N1` (stereo partly shown) [compound 52], the IC50 is 0.17 nM.

Turning to `COc1nc(-c2cccc(-c3cccc(-c4cnc(CN5CC6CC5(CO)C6)c(OC)n4)c3Cl)c2Cl)cnc1CNC[C@@H]1CCC(=O)N1` [compound 53], the IC50 came out at 0.1 nM.

Consider `COc1nc(-c2cccc(-c3cccc(-c4cnc(CNC[C@H]5CCC[C@@H]5O)c(OC)n4)c3Cl)c2Cl)cnc1CNC[C@@H]1CCC(=O)N1` [compound 54], for which the half-inhibitory concentration (IC50) was 0.18 nM.

As to `COc1nc(-c2cccc(-c3cccc(-c4cnc(CNC[C@@H]5CCC(=O)N5)c(OC)n4)c3Cl)c2Cl)cnc1CNCC1CCCCO1` (stereo partly shown) [compound 55], the IC50 stood at 0.26 nM.

In the case of `COc1nc(-c2cccc(-c3cccc(-c4cnc(CNC[C@@H]5CCC(=O)N5)c(OC)n4)c3Cl)c2Cl)cnc1CNCC1CCC(C(N)=O)O1` (stereo partly shown) [compound 56], the IC50 is 0.09 nM.

For `CNc1nc(-c2cccc(-c3cccc(-c4cnc(CNC[C@H]5C[C@H](O)C5)c(NC)n4)c3Cl)c2Cl)cnc1CNC[C@H]1C[C@H](O)C1` [compound 57], the IC50 is 8.78 nM.

Turning to `CNc1nc(-c2cccc(-c3cccc(-c4cnc(CN)c(NC)n4)c3Cl)c2Cl)cnc1CN` [compound 58], the IC50 came out at 6.76 nM.

With `CNc1nc(-c2cccc(-c3cccc(-c4cnc(CN5CC6(C5)CN(C(C)=O)C6)c(OC)n4)c3Cl)c2Cl)cnc1CN1CC2(C1)CN(C(C)=O)C2` [compound 59], the IC50 is 0.1 nM.

`CNc1nc(-c2cccc(-c3cccc(-c4cnc(CN5CC(O)C5)c(OC)n4)c3Cl)c2Cl)cnc1CN1CC(O)C1` [compound 60]: the IC50 stood at 0.14 nM.

For the compound `CNc1nc(-c2cccc(-c3cccc(-c4cnc(CN5CC6(CNC(=O)C6)C5)c(OC)n4)c3Cl)c2Cl)cnc1CN1CC2(CNC(=O)C2)C1` [compound 61], the IC50 came out at 0.07 nM.

As for `CNc1nc(-c2cccc(-c3cccc(-c4cnc(CN5CC6(CCC(=O)N6)C5)c(OC)n4)c3Cl)c2Cl)cnc1CN1CC2(CCC(=O)N2)C1` [compound 62], the IC50 turned out to be 0.16 nM.

For `CNc1nc(-c2cccc(-c3cccc(-c4cnc(CNC[C@@H]5CCC(=O)N5)c(OC)n4)c3Cl)c2Cl)cnc1CNC[C@@H]1CCC(=O)N1` [compound 63], the IC50 was found to be 2.99 nM.

Consider `CCNc1nc(-c2cccc(-c3cccc(-c4cnc(CN5CC6(C5)CN(C(C)=O)C6)c(NCC)n4)c3Cl)c2Cl)cnc1CN1CC2(C1)CN(C(C)=O)C2` [compound 65], for which the IC50 came to 0.165 nM.

Take `CCNc1nc(-c2cccc(-c3cccc(-c4cnc(CN5CC(O)C5)c(NCC)n4)c3Cl)c2Cl)cnc1CN1CC(O)C1` [compound 66]: the half-inhibitory concentration (IC50) amounted to 0.61 nM.

With `CCNc1nc(-c2cccc(-c3cccc(-c4cnc(CN5CC6(CNC(=O)C6)C5)c(NCC)n4)c3Cl)c2Cl)cnc1CN1CC2(CNC(=O)C2)C1` [compound 67], the half-maximal inhibitory concentration (IC50) came out at 0.292 nM.

As to `CCNc1nc(-c2cccc(-c3cccc(-c4cnc(CN5CC6(CCC(=O)N6)C5)c(NCC)n4)c3Cl)c2Cl)cnc1CN1CC2(CCC(=O)N2)C1` [compound 68], the half-inhibitory concentration (IC50) came to 0.403 nM.

Regarding `CNc1nc(-c2cccc(-c3cccc(-c4cnc(CN5CC(F)C5)c(NC)n4)c3Cl)c2Cl)cnc1CN1CC(F)C1` [compound 69], the IC50 worked out at 2.62 nM.

As for `CNc1nc(-c2cccc(-c3cccc(-c4cnc(CN5CCCC5)c(NC)n4)c3Cl)c2Cl)cnc1CN1CCCC1` [compound 70], the 50% inhibitory concentration (IC50) was determined as 0.784 nM.

For the compound `CNc1nc(-c2cccc(-c3cccc(-c4cnc(CN(C)C)c(NC)n4)c3Cl)c2Cl)cnc1CN(C)C` [compound 71], the 50% inhibitory concentration (IC50) turned out to be 0.081 nM.

As for `CNc1nc(-c2cccc(-c3cccc(-c4cnc(CN5CCC5)c(NC)n4)c3Cl)c2Cl)cnc1CN1CCC1` [compound 72], the half-maximal inhibitory concentration (IC50) amounted to 0.198 nM.

`CNCc1ncc(-c2cccc(-c3cccc(-c4cnc(CN5CCC5)c(NC)n4)c3Cl)c2Cl)nc1NC` [compound 73]: the IC50 is 0.37 nM.

For the compound `CNCc1ncc(-c2cccc(-c3cccc(-c4cnc(CNC)c(NC)n4)c3Cl)c2Cl)nc1NC` [compound 74], the IC50 is 1.34 nM.

Regarding `CNc1nc(-c2cccc(-c3cccc(-c4cnc(CN5CC(OC)C5)c(NC)n4)c3Cl)c2Cl)cnc1CN1CC(OC)C1` [compound 75], the half-maximal inhibitory concentration (IC50) turned out to be 0.877 nM.

On to `CNc1nc(-c2cccc(-c3cccc(-c4cnc(CN5CC6(C5)CN(C(C)=O)C6)c(NC)n4)c3Cl)c2Cl)cnc1CN1CC2(C1)CN(C(C)=O)C2` [compound 76], for which the IC50 was determined as 0.09 nM.

Consider `CNc1nc(-c2cccc(-c3cccc(-c4cnc(CN5CC(O)C5)c(NC)n4)c3Cl)c2Cl)cnc1CN1CC(O)C1` [compound 77], for which the IC50 was 0.192 nM.

Consider `CNc1nc(-c2cccc(-c3cccc(-c4cnc(CN5CC6(CNC(=O)C6)C5)c(NC)n4)c3Cl)c2Cl)cnc1CN1CC2(CNC(=O)C2)C1` [compound 78], for which the IC50 is 0.064 nM.

`CNc1nc(-c2cccc(-c3cccc(-c4cnc(CN5CC6(CCC(=O)N6)C5)c(NC)n4)c3Cl)c2Cl)cnc1CN1CC2(CCC(=O)N2)C1` [compound 79]: the half-maximal inhibitory concentration (IC50) was 0.292 nM.

For the compound `CNc1nc(-c2cccc(-c3cccc(-c4cnc(CNC[C@@H]5CCC(=O)N5)c(NC)n4)c3Cl)c2Cl)cnc1CNC[C@@H]1CCC(=O)N1` [compound 80], the 50% inhibitory concentration (IC50) came to 0.36 nM.

As for `OC1CN(Cc2cnc(-c3cccc(-c4cccc(-c5cnc(CN6CC(O)C6)cn5)c4Cl)c3Cl)cn2)C1` [compound 81], the IC50 was found to be 4.18 nM.

Consider `CCc1nc(-c2cccc(-c3cccc(-c4cnc(CN5CC(O)C5)c(CC)n4)c3Cl)c2Cl)cnc1CN1CC(O)C1` [compound 82], for which the IC50 stood at 0.335 nM.

Consider `CCc1nc(-c2cccc(-c3cccc(-c4cnc(CN5CC6(CNC(=O)C6)C5)c(CC)n4)c3Cl)c2Cl)cnc1CN1CC2(CNC(=O)C2)C1` [compound 83], for which the IC50 was 0.56 nM.

Regarding `CCc1nc(-c2cccc(-c3cccc(-c4cnc(CN5CC6(CCC(=O)N6)C5)c(CC)n4)c3Cl)c2Cl)cnc1CN1CC2(CCC(=O)N2)C1` [compound 84], the IC50 was 0.189 nM.

As to `CCc1nc(-c2cccc(-c3cccc(-c4cnc(CNC[C@@H]5CCC(=O)N5)c(CC)n4)c3Cl)c2Cl)cnc1CNC[C@@H]1CCC(=O)N1` [compound 85], the 50% inhibitory concentration (IC50) is 0.976 nM.

Take `COc1nc(-c2cccc(-c3cccc(-c4cnc(CNC56CC(C5)C6)c(OC)n4)c3Cl)c2Cl)cnc1CNC12CC(C1)C2` [compound 86]: the IC50 was 3.05 nM.

On to `COC1CN(Cc2ncc(-c3cccc(-c4cccc(-c5cnc(CN6CC(OC)C6)c(SC)n5)c4Cl)c3Cl)nc2SC)C1` [compound 87], for which the IC50 was 5.88 nM.

On to `CSc1nc(-c2cccc(-c3cccc(-c4cnc(CN5CC(O)C5)c(SC)n4)c3Cl)c2Cl)cnc1CN1CC(O)C1` [compound 88], for which the concentration for half-maximal inhibition (IC50) came out at 0.217 nM.

Regarding `CSc1nc(-c2cccc(-c3cccc(-c4cnc(CN5CC6(CNC(=O)C6)C5)c(SC)n4)c3Cl)c2Cl)cnc1CN1CC2(CNC(=O)C2)C1` [compound 89], the IC50 came to 0.286 nM.

As to `CSc1nc(-c2cccc(-c3cccc(-c4cnc(CN5CC6(CCC(=O)N6)C5)c(SC)n4)c3Cl)c2Cl)cnc1CN1CC2(CCC(=O)N2)C1` [compound 90], the half-maximal inhibitory concentration (IC50) was 0.156 nM.

Consider `CSc1nc(-c2cccc(-c3cccc(-c4cnc(CNC[C@@H]5CCC(=O)N5)c(SC)n4)c3Cl)c2Cl)cnc1CNC[C@@H]1CCC(=O)N1` [compound 91], for which the IC50 amounted to 0.978 nM.

Consider `COC1CN(Cc2ncc(-c3cccc(-c4cccc(-c5cnc(CN6CC(OC)C6)c(C)n5)c4Cl)c3Cl)nc2C)C1` [compound 92], for which the IC50 turned out to be 1.03 nM.

In the case of `Cc1nc(-c2cccc(-c3cccc(-c4cnc(CN5CC(O)C5)c(C)n4)c3Cl)c2Cl)cnc1CN1CC(O)C1` [compound 93], the concentration for half-maximal inhibition (IC50) stood at 0.566 nM.

For `Cc1nc(-c2cccc(-c3cccc(-c4cnc(CN5CC6(CNC(=O)C6)C5)c(C)n4)c3Cl)c2Cl)cnc1CN1CC2(CNC(=O)C2)C1` [compound 94], the IC50 stood at 0.862 nM.

On to `Cc1nc(-c2cccc(-c3cccc(-c4cnc(CN5CC6(CCC(=O)N6)C5)c(C)n4)c3Cl)c2Cl)cnc1CN1CC2(CCC(=O)N2)C1` [compound 95], for which the half-maximal inhibitory concentration (IC50) stood at 0.233 nM.

With `Cc1nc(-c2cccc(-c3cccc(-c4cnc(CNC[C@@H]5CCC(=O)N5)c(C)n4)c3Cl)c2Cl)cnc1CNC[C@@H]1CCC(=O)N1` [compound 96], the concentration for half-maximal inhibition (IC50) amounted to 1.5 nM.

Regarding `COC1CN(Cc2ncc(-c3cccc(-c4cccc(-c5cnc(CN6CC(OC)C6)c(N(C)C)n5)c4Cl)c3Cl)nc2N(C)C)C1` [compound 97], the IC50 is 0.701 nM.

As for `COC1CN(Cc2ncc(-c3cccc(-c4cccc(-c5cnc(CN6CC(OC)C6)c(N(C)C)n5)c4Cl)c3Cl)nc2Cl)C1` [compound 98], the half-maximal inhibitory concentration (IC50) was 0.647 nM.

In the case of `CN(C)c1nc(-c2cccc(-c3cccc(-c4cnc(CN5CC(O)C5)c(N(C)C)n4)c3Cl)c2Cl)cnc1CN1CC(O)C1` [compound 99], the IC50 stood at 0.407 nM.

For the compound `CN(C)c1nc(-c2cccc(-c3cccc(-c4cnc(CN5CC(O)C5)c(Cl)n4)c3Cl)c2Cl)cnc1CN1CC(O)C1` [compound 100], the 50% inhibitory concentration (IC50) was 0.146 nM.

With `CN(C)c1nc(-c2cccc(-c3cccc(-c4cnc(CN5CC6(CNC(=O)C6)C5)c(N(C)C)n4)c3Cl)c2Cl)cnc1CN1CC2(CNC(=O)C2)C1` [compound 101], the IC50 was found to be 0.13 nM.

As to `CN(C)c1nc(-c2cccc(-c3cccc(-c4cnc(CN5CC6(CNC(=O)C6)C5)c(Cl)n4)c3Cl)c2Cl)cnc1CN1CC2(CNC(=O)C2)C1` [compound 102], the IC50 turned out to be 0.223 nM.

As for `CN(C)c1nc(-c2cccc(-c3cccc(-c4cnc(CN5CC6(CCC(=O)N6)C5)c(N(C)C)n4)c3Cl)c2Cl)cnc1CN1CC2(CCC(=O)N2)C1` [compound 103], the half-inhibitory concentration (IC50) was 0.071 nM.

Turning to `CN(C)c1nc(-c2cccc(-c3cccc(-c4cnc(CN5CC6(CCC(=O)N6)C5)c(Cl)n4)c3Cl)c2Cl)cnc1CN1CC2(CCC(=O)N2)C1` [compound 104], the IC50 was found to be 0.077 nM.
